{
  "source": "patent EP1161410B1",
  "about": "“RETINOID ANTAGONISTS AND USE THEREOF” (Basilea Pharmaceutica AG, priority 1999, dated 2000)",
  "key": {"[1]": {"assay": "Effect on weight loss induced by all-trans retinoic acid in mice", "details": "female mice", "description": "Effect of retinoids with RXR antagonistic activity on weight loss induced by all-trans retinoic acid in mice.\nThe test compounds were solubilized/suspended in arachis oil and applied intraperitoneally into female mice (25/30 g) for 5 days a week during 2 weeks."}, "neonatal mouse calvaria": {"system": "neonatal mouse calvaria", "assay": "Bone resorption assay, calcium release from neonatal mouse calvaria in tissue culture", "assay_type": "cell-based, Swiss albino mice", "experimental": "A series of agents are known to induce or stimulate bone resorption. In this assay retinoid antagonists were tested for their capacity to inhibit or counteract the bone resorptive activity of bone resorption inducers.\nBone resorption was determined by quantification of calcium release from neonatal mouse calvaria (skull bones) in a tissue culture system, into supernatant medium. Calvaria were prepared from 4 days old mice (body weight 4-4.5 g) of time controlled mated Swiss albino mice. Frontal and parietal calvarial parts were dissected under a stereo-microscope and halved along the median suture. Half calvaria from all animals were randomly distributed to 6-well culture dishes (NUNC), containing stainless steel grids to support the bones at the interface of gas and medium. The tissue is incubated in BGJ medium (Bioconcept, Switzerland) according to a specified formulation supplemented with 1 mg/ml BSA (bovine serum albumin, SIGMA). Calvaria were cultured at 37°C in humidified atmosphere of 5% CO2 and 95% air. After 24 hours of preincubation, they were transferred to new dishes containing 1.7 ml fresh medium and test substances. Bone resorption inducers and retinoid antagonists were tested either as single agents or in combination. The cultures were then run for 72 hours. Calcium concentrations in culture supernatants were measured immediately after each incubation period. Stable, free calcium was determined in 25 µl samples with a spectrophotometric method using a methylthymol blue containing kit (Biomérieux), (E.M. Gindler and J.D. King, Am. J. Clin. Pathol. 1972, 58, 376-382). The resorptive response was expressed as µg calcium released per half calvarium during 3 days treatment.\nAdditional tests were done to examine calcium remaining in the calvaria. Calcium was extracted with 5% trichloroacetic acid (TCA) and determined in 50 µl samples after neutralization with NaOH. Furthermore, bone tissue viability was determined to exclude cytotoxicity. This was quantified by the colorimetric MTT tetrazolium test (T. Mosmann, J. Immunol. Methods 1983, 65, 55-63).\nBone resorption induced by the various agents was determined by measuring the amount of calcium released from half calvaria into the supernatant medium. Calcium release is indicated in µg per half calvarium in 1.7 ml medium. Calcium release from calvaria into medium as well as uptake of calcium from medium into calvaria can be measured. Efficacy of retinoid antagonists to inhibit the activity of bone resorption inducers is expressed as % inhibition. It is calculated from the difference between the amount of released calcium by bone resorption inducers alone and the amount of released calcium by their combination with retinoid antagonists. Retinoid antagonists alone induce neither calcium release nor uptake. Basal resorption rate in vehicle controls was 5 or less than 5%."}, "IL-12 [2]": {"system": "IL-12", "assay": "IL-12 production by activated monocytes (SAC + IFN-γ), ELISA", "assay_type": "cell-based, human", "details": "SAC+IFN-γ alone 120-126 pg/ml", "experimental": "THP-1 cells were obtained from American Tissue Culture Collection and cultured in complete medium. […] Exp. Med. 183, 147-157 (1996)]. […] Supernatants were collected after 48 hours and freezed at -20 °C until assayed [[…]-Bordignon et al., J. Clin. Invest. 100, 1513-1519 (1997)]. […] Clin. Invest. 93, 1733-1739 (1994)]. […] Absorbance was read at 450-650 nm. The unknown IL-12 concentrations of the samples were read from the corresponding standard curve and multiplied by the corresponding dilution factor. […] Serial dilutions (1 μM-1 pM) were prepared in complete RPMI medium. 10 μl of each dilution was added to 1 ml culture."}, "IL-10": {"system": "IL-10", "assay": "IL-10 production by activated monocytes (SAC + IFN-γ)", "assay_type": "cell-based, human", "details": "SAC+IFN-γ alone 1040 pg/ml"}, "TNF-α": {"system": "TNF-α", "assay": "TNF-α production by activated monocytes (SAC + IFN-γ)", "assay_type": "cell-based, human", "details": "SAC+IFN-γ alone 1840-2000 pg/ml"}, "IL-12 [3]": {"system": "IL-12", "assay": "IL-12 production by PBMC primed with IFNγ and stimulated with SAC", "assay_type": "cell-based, human", "details": "IFNγ+SAC alone 360", "experimental": "(§1) THP-1 cells were obtained from American Tissue Culture Collection and cultured in complete medium. To assay for IL-12 production, THP-1 cells, 1.25 x 10^6 cells/ml, were stimulated with S. aureus Cowan strain (SAC) (1/1000) and human recombinant interferon-γ (huIFN-γ (1000 U/ml) [Ma et al., J. Exp. Med. 183, 147-157 (1996)]. Alternatively, 0.5 x 10^6 human peripheral blood mononuclear cells (PBMC) (1 ml culture in 48 well plates) were primed with huIFN-γ (1000 U/ml) for 16 hours at 37°C, and then stimulated with SAC (1/1000). Supernatants were collected after 48 hours and freezed at -20 °C until assayed [Panina-Bordignon et al., J. Clin. Invest. 100, 1513-1519 (1997)].\n(§2) IL-12 production was measured by specific enzyme linked immuno sorbant assay (ELISA), using 20C2 antibody (rat anti human IL-12 heterodimer p40-p35), at 2.5 µg/ml in coating buffer, and peroxidase-conjugated 4D6 antibody (rat anti human IL-12) at 250 ng/ml in assay buffer as described [Zhang et al., J. Clin. Invest. 93, 1733-1739 (1994)]. Standard (recombinant human IL-12, 800 pg/ml to 6 pg/ml) and samples (100 µl) diluted in assay buffer were added to duplicate wells. Absorbance was read at 450-650 nm. The unknown IL-12 concentrations of the samples were read from the corresponding standard curve and multiplied by the corresponding dilution factor. Maximal IL-12 production varied between 200 and 400 pg/ml.\n(§3) Lyophilized retinoid antagonists were diluted in DMSO under yellow light, on ice at a concentration of 2 mM. Serial dilutions (1 µM-1 pM) were prepared in complete RPMI medium. 10 µl of each dilution was added to 1 ml culture."}, "IL-12 [4]": {"system": "IL-12", "assay": "IL-12 production by THP-1 cells stimulated with IFNγ and SAC", "assay_type": "cell-based, human", "details": "retinoid antagonist (1 µg) added at time 0 together with IFNγ, IFNγ+SAC alone 275", "experimental": "as §1, §2, §3"}, "[5]": {"details": "A 200 mg/kg alone, intraperitoneally, n=2"}, "[6]": {"details": "C 100 mg/kg + A 200 mg/kg, intraperitoneally, n=2"}, "[7]": {"details": "C 200 mg/kg + A 200 mg/kg, intraperitoneally, n=2"}},
  "data": [
    {"smiles": "CCOc1c(\\C(C)=C/C=C/C(C)=C/C(=O)O)cc(C(C)(C)C)cc1C(C)(C)C", "note": "[Compound A, (2E,4E,6Z)-7-(3,5-di-tert.butyl-2-ethaxyphenyl]-3-methyl-2,4,6-octatrienoic acid]", "values": [
      {"measurement": "% survival after 14 days", "setting": "[1]; [5]", "value": 100, "unit": "%"},
      {"measurement": "% weight change after 4 days", "setting": "[1]; [5]", "value": "+15%"},
      {"measurement": "% weight change after 7 days", "setting": "[1]; [5]", "value": "+26%"},
      {"measurement": "% survival after 14 days", "setting": "[1]; [6]", "value": 100, "unit": "%"},
      {"measurement": "% weight change after 4 days", "setting": "[1]; [6]", "value": -13, "unit": "%"},
      {"measurement": "% weight change after 7 days", "setting": "[1]; [6]", "value": -8, "unit": "%"},
      {"measurement": "% survival after 14 days", "setting": "[1]; [7]", "value": 100, "unit": "%"},
      {"measurement": "% weight change after 4 days", "setting": "[1]; [7]", "value": -23, "unit": "%"},
      {"measurement": "% weight change after 7 days", "setting": "[1]; [7]", "value": -23, "unit": "%"}
    ]},
    {"smiles": "CC1=C(/C=C/C(C)=C/C=C/C(C)=C/C(=O)O)C(C)(C)CCC1", "note": "[Compound C, all-trans retinoic acid]", "values": [
      {"measurement": "Calcium release per half calvarium", "setting": "neonatal mouse calvaria; all-trans RA 0.01 μM alone, series of antagonist B", "value": "1 ± 2", "unit": "µg"},
      {"measurement": "Calcium release per half calvarium", "setting": "neonatal mouse calvaria; all-trans RA 0.01 μM alone, series of antagonist H", "value": "1 ± 4", "unit": "µg"},
      {"measurement": "Calcium release per half calvarium", "setting": "neonatal mouse calvaria; all-trans RA 0.1 μM alone, series of antagonist B", "value": "13 ± 3", "unit": "µg"},
      {"measurement": "Calcium release per half calvarium", "setting": "neonatal mouse calvaria; all-trans RA 0.1 μM alone, series of antagonist H", "value": "19 ± 11", "unit": "µg"},
      {"measurement": "Calcium release per half calvarium", "setting": "neonatal mouse calvaria; all-trans RA 1 μM alone, series of antagonist B", "value": "17 ± 3", "unit": "µg"},
      {"measurement": "Calcium release per half calvarium", "setting": "neonatal mouse calvaria; all-trans RA 1 μM alone, series of antagonist H", "value": "23 ± 8", "unit": "µg"},
      {"measurement": "% survival after 14 days", "setting": "[1]; C 100 mg/kg alone, intraperitoneally, n=10", "value": 20, "unit": "%"},
      {"measurement": "% survival after 14 days", "setting": "[1]; C 200 mg/kg alone, intraperitoneally 5 days a week during 2 weeks, n=2", "value": 0, "unit": "%"}
    ]},
    {"smiles": "CC1(C)CCC(C)(C)c2cc3c(cc21)CCc1c(-c2ccc(C(=O)O)cc2)cn(Cc2cccnc2)c1-3", "note": "[Compound I, 4-(7,7,10,10-Tetramethyl-1-pyridin-3-ylmethyl-4,5,7,8,9,10-hexahydro-1H-naphto[2,3-g]indol-3-yl)-benzoic acid]", "values": [
      {"measurement": "IL-12", "setting": "IL-12 [2]; antagonist 10 nM", "value": 173, "unit": "pg/mL"},
      {"measurement": "IL-12", "setting": "IL-12 [2]; antagonist 100 nM", "value": 205, "unit": "pg/mL"},
      {"measurement": "IL-12", "setting": "IL-12 [2]; antagonist 1000 nM", "value": 321, "unit": "pg/mL"},
      {"measurement": "IL-10", "setting": "IL-10; antagonist 10 nM", "value": 971, "unit": "pg/mL"},
      {"measurement": "IL-10", "setting": "IL-10; antagonist 100 nM", "value": 983, "unit": "pg/mL"},
      {"measurement": "IL-10", "setting": "IL-10; antagonist 1000 nM", "value": 1116, "unit": "pg/mL"},
      {"measurement": "TNF-α", "setting": "TNF-α; antagonist 10 nM", "value": 2592, "unit": "pg/mL"},
      {"measurement": "TNF-α", "setting": "TNF-α; antagonist 100 nM", "value": 2752, "unit": "pg/mL"},
      {"measurement": "TNF-α", "setting": "TNF-α; antagonist 1000 nM", "value": 2884, "unit": "pg/mL"},
      {"measurement": "PBMC IL-12", "setting": "IL-12 [3]; retinoid antagonist (1 µg) added after 16 hours together with SAC", "value": 367, "unit": "pg/mL"},
      {"measurement": "PBMC IL-12", "setting": "IL-12 [3]; retinoid antagonist (1 µg) added at time 0 together with IFNγ", "value": 371, "unit": "pg/mL"},
      {"measurement": "THP-1 IL-12", "setting": "IL-12 [4]", "value": 364, "unit": "pg/mL"}
    ]},
    {"smiles": "C=C1/C(=C\\C=C2/CCC[C@]3(C)[C@@H]([C@H](C)CCCC(C)(C)O)CC[C@@H]23)C[C@@H](O)C[C@@H]1O", "note": "[Calcitriol, 1,25-dihydroxyvitamin D3]", "values": [
      {"measurement": "Calcium release per half calvarium", "setting": "neonatal mouse calvaria; Calcitriol 0.3 nM alone, 72 hours", "value": "4 ± 3", "unit": "µg"},
      {"measurement": "Calcium release per half calvarium", "setting": "neonatal mouse calvaria; Calcitriol 1 nM alone, 72 hours", "value": "9 ± 4", "unit": "µg"},
      {"measurement": "Calcium release per half calvarium", "setting": "neonatal mouse calvaria; Calcitriol 3 nM alone, 72 hours", "value": "13 ± 3", "unit": "µg"}
    ]},
    {"smiles": "CC1=C(/C=C/C(C)=C\\C=C\\C(C)=C\\C(=O)O)C(C)(C)CCC1", "note": "[Compound E, 9-cis retinoic acid]", "values": [
      {"measurement": "Calcium release per half calvarium", "setting": "neonatal mouse calvaria; 9-cis RA 0.01 μM alone, series of antagonist B", "value": "3 ± 3", "unit": "µg"},
      {"measurement": "Calcium release per half calvarium", "setting": "neonatal mouse calvaria; 9-cis RA 0.01 μM alone, series of antagonist H", "value": "6 ± 10", "unit": "µg"},
      {"measurement": "Calcium release per half calvarium", "setting": "neonatal mouse calvaria; 9-cis RA 0.1 μM alone, series of antagonist B", "value": "17 ± 10", "unit": "µg"},
      {"measurement": "Calcium release per half calvarium", "setting": "neonatal mouse calvaria; 9-cis RA 0.1 μM alone, series of antagonist H", "value": "22 ± 8", "unit": "µg"},
      {"measurement": "Calcium release per half calvarium", "setting": "neonatal mouse calvaria; 9-cis RA 1 μM alone, series of antagonist B", "value": "18 ± 4", "unit": "µg"},
      {"measurement": "Calcium release per half calvarium", "setting": "neonatal mouse calvaria; 9-cis RA 1 μM alone, series of antagonist H", "value": "40 ± 11", "unit": "µg"}
    ]}
  ]
}
